{"source": "patent US11571413B2", "about": "“Nicotinamide riboside treatments of domesticated meat animals” (Kansas State University Research Foundation, priority 2017, dated 2023)", "key": {"finishing barrows": {"system": "finishing barrows", "test": "Finishing pig growth performance (Example IV)", "type": "in vivo", "method": "Seven days prior to the beginning of the experiment, 10 finishing barrows (initial BW 111.9±1.6 kg) were assigned to individual pens located at the East Finisher facility of the Kansas State University Swine Teaching and Research Center (Manhattan, Kans.). Each pen was 7.4 m^2 with a slatted floor, contained a nipple waterer and an individual dry feeder that allowed ad libitum access to food and water. Barrows were randomly assigned to 1 of 2 NR treatments, 0 or 30 mg/kg daily of NR mixed in Karo® syrup and administered by oral gavage. Barrows were administered their assigned treatment for 10 days, after which they were harvested under USDA inspection. Twenty-four hours after harvest, carcass measurements were taken by trained personnel, carcasses were fabricated into the 5 major wholesale cuts, and whole-boneless loins were vacuum packaged and aged for 10 days. Loin were cut into 3 chops with chop 1 being used for day-0 metmyoglobin reducing ability (MRA) analysis, chop 2 being used for day-4 MRA and oxygen consumption rate (OCR) analyses, and chop 3 for 8-day objective/subjective color evaluation and MRA and OCR analyses."}, "finished market barrows [1]": {"system": "finished market barrows", "test": "Semitendinosus muscle NAD+ content by HPLC (Example V)", "type": "in vivo, pig", "conditions": "30 mg/kg BW oral daily, 10 days", "method": "(§1) Fourteen days prior to harvest, 20 finished market barrows (initial body weight 268 pounds) were randomly assigned to 1 of 2 treatments: 0 or 30 mg/kg body weight of nicotinamide riboside, both orally administered daily in 20 ml of Karo® Syrup. Ten days prior to harvest, pigs were restrained via a snare and treatments were administered. On day 7, barrows were subjected to a performance test where they were walked around a track at 0.88 m/s until subjective fatigue was achieved. Three days following the performance test, barrows were harvested and a portion of the semitendinosus muscle was collected within 45 minutes. These samples were analyzed for NAD+ content via HPLC methodology."}, "finished market barrows [2]": {"system": "finished market barrows", "test": "Performance test to subjective fatigue (Example V)", "type": "in vivo, pig", "conditions": "30 mg/kg BW oral daily; performance test on day 7, 0.88 m/s", "method": "as §1"}, "[3]": {"system": "Fertilized Cobb 500 broiler eggs", "test": "Pectoralis major NAD+ quantification, NAD/NADH assay kit (second Example VI)", "type": "in vivo, chicken", "conditions": "hatched chicks", "method": "Nicotinamide adenine dinucleotide content of the right PMM was quantified using a commercial NAD/NADH assay kit (Abnova, Taipei, Taiwan). Twenty-milligram of PMM tissue was homogenized in a propriety NAD extraction buffer, heated at 60° C. for 5 min, and propriety assay and NADH buffers were added. Samples were centrifuged at 14,000 rpm for 5 min and the supernatant was used for analysis. Standards, samples, and working reagent [propriety assay buffer, enzymes, lactate, and 3-(4,5-dimethylthiazol-2-yl)-2,5-diphenyltetrazolium bromide] were loaded onto 96-well plates and absorbance was read at 565 nm at 0 and 15 min. The change in absorbance was used to calculate amount of NAD+."}, "[4]": {"system": "Fertilized broiler eggs (Cobb 500)", "test": "Pectoralis major muscle fiber CSA and density by immunohistochemistry (Example VI)", "type": "in vivo, chicken", "conditions": "hatched chicks", "method": "The methods of Noel et al. (2016) were followed for immunohistochemistry with modifications. The PM was removed from the tongue depressor, embedded in tissue embedding media (Fisher Scientific), cooled with isopentane chilled liquid nitrogen, and stored at −80° C. until cryosectioning. Ten micrometer-thick cryosections were cut using a Microm 550 cryostat (Thermo Fisher Scientific, Kalamazoo, Mich.) and six cryosection were collected on positively charged slides (Diamond White Glass; Globe Scientific Inc., Paramus, N.J.). Cryosections were incubated in a blocking solution containing 5% horse serum and 0.2% TritonX-100 in Phosphate Buffered Saline (PBS) for 30 min. Slides were incubated for 1 h at room temperature in a primary antibody solution consisting of blocking solution and 1:500 rabbit, α-dystrophin (Thermo Fisher Scientific). Cryosections were washed 3 times for 5 min each in PBS and incubated for an additional 30 min with blocking solution containing 1:1,000 Alexa-Flour 594 goat-anti-rabbit heavy and light chains (Life Technologies, Carlsbad, Calif.). Cryosections were washed again as stated above, 5 μl of 9:1 glycerol in PBS was placed on each section, and slides were coverslipped for imaging. Cryosections were visualized at 200× magnification using a Nikon Elipse TI-U inverted microscope (Nikon Instruments Inc., Melville, N.Y.), a Nikon DS-QiMC digital camera (Nikon Instruments Inc.) was used to photograph cryosections, and an average of 1,000 fibers were analyzed using NIS-Elements imaging software (Basic Research, 3.3; Nikon Instruments Inc.) to determine fiber cross-section area (CSA)."}, "[5]": {"conditions": "d 0 to 17, NR 30 mg/kg daily d 7 to 17"}}, "data": [{"smiles": "NC(=O)c1ccc[n+]([C@@H]2O[C@H](CO)[C@@H](O)[C@H]2O)c1", "note": "[Nicotinamide riboside, nicotinamide riboside]", "values": [{"measurement": "Increase of average daily gain (numerical)", "setting": "finishing barrows; 30 mg/kg daily oral gavage over 10 days", "result": 8, "unit": "%"}, {"measurement": "Body weight", "setting": "finishing barrows; d 0 (NR 30 mg/kg given d 7 to 17; before treatment)", "result": 112.0, "unit": "kg"}, {"measurement": "Average daily gain", "setting": "finishing barrows; d 0 to 7 (before NR treatment)", "result": 0.7, "unit": "kg"}, {"measurement": "Average daily feed intake", "setting": "finishing barrows; [5]", "result": 3.8, "unit": "kg"}, {"measurement": "Average daily gain", "setting": "finishing barrows; [5]", "result": 1.1, "unit": "kg"}, {"measurement": "Feed to gain ratio", "setting": "finishing barrows; [5]", "result": 3.42}, {"measurement": "Body weight", "setting": "finishing barrows; d 7 (start of NR 30 mg/kg, d 7 to 17)", "result": 117.0, "unit": "kg"}, {"measurement": "Average daily gain", "setting": "finishing barrows; d 7 to 17, NR 30 mg/kg daily", "result": 1.43, "unit": "kg"}, {"measurement": "Body weight", "setting": "finishing barrows; d 17, NR 30 mg/kg daily d 7 to 17", "result": 131.3, "unit": "kg"}, {"measurement": "Increase of NAD+ in the semitendinosus muscle (tendency, P=0.09)", "setting": "finished market barrows [1]", "result": 62, "unit": "%"}, {"measurement": "Ran farther (distance) than unsupplemented barrows, numerically", "setting": "finished market barrows [2]", "result": 16, "unit": "%"}, {"measurement": "Ran longer (time to subjective fatigue) than unsupplemented barrows, numerically", "setting": "finished market barrows [2]", "result": 19, "unit": "%"}, {"measurement": "NAD+ content of PMM vs the other 3 treatment groups", "setting": "[3]; 1,000 mM NR", "result": "more NAD^+"}, {"measurement": "NAD+ content of PMM among 0, 250 and 500 mM groups", "setting": "[3]; 250 and 500 mM NR", "result": "did not differ"}, {"measurement": "PM fiber CSA", "setting": "[4]; 250 mM NR in ovo at d 10", "result": "did not affect"}, {"measurement": "Muscle fiber density vs saline in the albumen", "setting": "[4]; 250 mM NR into albumen", "result": "not differ"}, {"measurement": "Increase of PM fiber density", "setting": "[4]; 250 mM NR into the yolk sac", "result": 45, "unit": "%"}, {"measurement": "Muscle fiber density vs saline in the yolk", "setting": "[4]; 250 mM NR into yolk", "result": "more"}]}]}
